# Experimental data published in PMC7395068, “The evolution of strategies to minimise the risk of human drug-induced liver injury (DILI) in drug discovery and development” (Archives of Toxicology, 2020).
# Like-named read-outs stand apart in the source and are kept apart here.
# Assays:
# hLiMTs [1] = conditions: cited from earlier work; for hLiMTs ATP <100uM: In vitro Assay, ref Proctor 2017; for hLiMTs/100uM, Proctor (2017): IC50 threshold 100 µM
# HepG2 cells [2] = conditions: In vitro Assay; ref Tolosa 2012; cited from earlier work
# HepG2 cells [3] = conditions: In vitro Assay; ref O'Brien 2006; cited from earlier work
# [4] = test system: isolated mouse liver mitochondria; conditions: In vitro Assay; ref Porceddu 2012; cited from earlier work
# HepG2 cells [5] = conditions: In vitro Assay; ref Persson 2013; cited from earlier work
# PHH = conditions: cited from earlier work; for PHH/100uM, Proctor (2017): IC50 threshold 100 µM; for PHH ATP <100uM: In vitro Assay, ref Proctor 2017
# HepaRG spheroids = test: Combined HCI (HCS) and cellular ATP 3D assay in HepaRG spheroids; conditions: for HepaRG <10 uM All: cut-off <10 uM; for AC50 / minimal effective concentration: Homo sapiens
# [6] = test system: THLE-Null and THLE-3A4 cells; conditions: In vitro Assay; ref Gustafsson 2014; cited from earlier work
# hLiMTs [7] = test: Combined HCI (HCS) and cellular ATP 3D assay in hLiMTs; conditions: for AC50 / minimal effective concentration: Homo sapiens; for hLiMTs <10 uM All: cut-off <10 uM
# [8] = cited from earlier work
# [9] = test system: HepG2 cells, primary human hepatocytes; conditions: In vitro Assay; ref Garside 2014; cited from earlier work
# human hepatocytes = conditions: In vitro Assay; ref Xu 2008; cited from earlier work
# [10] = cited from earlier work; remark: listed apart in the source
# [11] = FDA drug labelling score, scale 1-8; ref Chen 2011; cited from earlier work
# [12] = read-out: Human plasma Cmax; total plasma Cmax.tot, median of 9 literature references; cited from earlier work
# [13] = test system: HepG2 C3A spheroid, BSEP, Glu/Gal in HepG2 cells, bioactivation; conditions: cited from earlier work
# [14] = hLiMTs, ATP, ref Proctor et al. 2017
# [15] = 2D PHH, ATP, ref Proctor et al. 2017
# [16] = Microtissue model structural based (HCI), combined HCS and ATP, MEC < 25 × Cmax.tot cut-off
smiles,measurement,setting,value
CCCCc1oc2ccccc2c1C(=O)c1cc(I)c(OCCN(CC)CC)c(I)c1 [amiodarone],hLiMTs ATP <100uM,hLiMTs [1],+VE (IC50 threshold of 100 µM)
same,"hLiMTs/100uM, Proctor (2017)",hLiMTs [1]; [14],+VE (IC50 threshold of 100 µM)
same,Structural based (HCI),HepG2 cells [2],+VE
same,Structural based (HCI),HepG2 cells [3],+VE
same,in vitro data EC20<=2uM,[4],+VE
same,Cluser analysis,HepG2 cells [5],+VE
same,Structural based (HCI),HepG2 cells [5],+VE
same,"PHH/100uM, Proctor (2017)",PHH; [15],+VE (IC50 threshold of 100 µM)
same,PHH ATP <100uM,PHH,+VE (IC50 threshold of 100 µM)
same,HepaRG <10 uM All,"HepaRG spheroids; HepaRG, all endpoints",+ve (<10 uM)
same,AC50,"HepaRG spheroids; HepaRG, read-out: ATP endpoint AC50",112 µM
same,minimal effective concentration,"HepaRG spheroids; HepaRG, read-out: ATP endpoint MEC",98.8 µM
same,AC50,"HepaRG spheroids; HepaRG, read-out: HCS endpoint AC50",13.1 µM
same,minimal effective concentration,"HepaRG spheroids; HepaRG, read-out: HCS endpoint MEC",4.62 µM
same,THLE-Null,[6],+VE
same,AC50,hLiMTs [7]; read-out: ATP endpoint AC50,5.33 µM
same,minimal effective concentration,hLiMTs [7]; read-out: ATP endpoint MEC,4.58 µM
same,AC50,hLiMTs [7]; read-out: HCS endpoint AC50,28.2 µM
same,minimal effective concentration,hLiMTs [7]; read-out: HCS endpoint MEC,6.51 µM
same,hLiMTs <10 uM All,"hLiMTs [7]; hLiMTs, all endpoints",+ve (<10 uM)
CN(C)CCC=C1c2ccccc2CCc2ccccc21 [amitriptyline],"DILI +VE (5-8), DILI -VE (-4)",[8]; ref Chen 2016,+VE
same,DILI severity category,[8]; ref Chen 2016,vLess-DILI-Concern
same,Cluster 1-6 +VE Assay,[9],+VE
same,hLiMTs ATP <100uM,hLiMTs [1],+VE (IC50 threshold of 100 µM)
same,Structural based (HCI),HepG2 cells [2],+VE
same,Structural based (HCI),HepG2 cells [3],-VE
same,Cluser analysis,HepG2 cells [5],+VE
same,Structural based (HCI),HepG2 cells [5],+VE
same,PHH ATP <100uM,PHH,+VE (IC50 threshold of 100 µM)
same,Structural based (HCI),human hepatocytes,-VE
same,In vivo DILI,[10]; […],+VE
same,In vivo DILI,[10]; ref Garside 2014,+VE
same,In vivo DILI,[10]; ref O'Brien 2006,+VE
same,In vivo DILI,[10]; ref Persson 2013,+VE
same,In vivo DILI,[10]; ref Proctor 2017,+VE
same,In vivo DILI,[10]; ref Tolosa 2012,+VE
same,In vivo DILI,[10]; ref Xu 2008,-VE
C[C@H]1c2cccc(O)c2C(=O)C2=C(O)[C@]3(O)C(=O)C(C(N)=O)=C(O)[C@@H](N(C)C)[C@@H]3[C@@H](O)[C@@H]21 [doxycycline],"DILI +VE (5-8), DILI -VE (-4)","[8]; binary in vivo human DILI call, ref Chen 2016",+VE
same,DILI severity category,"[8]; human DILI, LTKB DILIrank category, ref Chen 2016",vLess-DILI-Concern
same,Structural based (HCI),HepG2 cells [2],+VE
same,DILI Score (FDA) (1-8),[11],3
same,In vivo DILI,[10]; ref Tolosa 2012,+VE
Cc1c(-c2ccccc2)oc2c(C(=O)OCCN3CCCCC3)cccc2c1=O [flavoxate],DILI severity category (Chen et al. [2016]),"[8]; LTKB DILIrank category, ref Chen et al. 2016",No
same,DILI severity category (Chen 2016),"[8]; human DILI classification, LTKB DILIrank, ref Chen et al. 2016",No
same,DILI severity category,"[8]; human DILI severity, ref Chen et al.",No
same,"DILI +VE (5-8), DILI -VE (-4)",[8]; ref Chen 2016,-VE
same,DILI severity category,[8]; ref Chen 2016,vNo-DILI-Concern
same,hLiMTs ATP <100uM,hLiMTs [1],-VE
same,"hLiMTs/100xCmax, Proctor (2017)","hLiMTs [1]; hLiMTs, ATP, IC50 < 100 × Cmax.tot, ref Proctor et al. 2017",-VE
same,"hLiMTs/100uM, Proctor (2017)",hLiMTs [1]; [14],-VE
same,Cmax,[12],1790 nM
same,"PHH/100xCmax, Proctor (2017)","PHH; 2D PHH, ATP, IC50 < 100 × Cmax.tot, ref Proctor et al. 2017",-VE
same,"PHH/100uM, Proctor (2017)",PHH; [15],-VE
same,PHH ATP <100uM,PHH,-VE
same,HepaRG <25x Avg Cmax ATP,"HepaRG spheroids; HepaRG, ATP endpoint, cut-off <25x Avg Cmax",-ve
same,HepaRG <100x Avg Cmaxu ATP,"HepaRG spheroids; HepaRG, ATP endpoint, cut-off <100x Avg Cmaxu",-ve
same,HepaRG <25x Avg Cmax HCS,"HepaRG spheroids; HepaRG, HCS endpoints, cut-off <25x Avg Cmax",-ve
same,HepaRG <100x Avg Cmaxu HCS,"HepaRG spheroids; HepaRG, HCS endpoints, cut-off <100x Avg Cmaxu",-ve
same,HepaRG <25x Avg Cmax All,"HepaRG spheroids; HepaRG, all endpoints (ATP and HCS), cut-off <25x Avg Cmax",-ve
same,HepaRG Cmax max All,"HepaRG spheroids; HepaRG, all endpoints, Cmax max used",-ve
same,HepaRG Cmax min All,"HepaRG spheroids; HepaRG, all endpoints, Cmax min used",-ve
same,HepaRG <10 uM All,"HepaRG spheroids; HepaRG, all endpoints",-ve
same,HepaRG <100x Avg Cmaxu All,"HepaRG spheroids; HepaRG, all endpoints, cut-off <100x Avg Cmaxu",-ve
same,DILI prediction HepaRG spheroids (HCS-MEC),HepaRG spheroids; [16],-VE
same,"Bayesian Machine Learning DILI prediction, Williams (2019)","[13]; Bayesian modeling, ref Williams et al. 2019",-VE
same,Bayesian Machine Learning,[13]; ref Williams 2019,-VE
same,Assigned DILI category,"[10]; Chen et al. 2016 or literature alignment, ref Chen et al. 2016",1
same,In vivo DILI,[10]; ref Proctor 2017,-VE
same,In vivo DILI,[10]; ref Williams 2019,-VE
same,AC50,hLiMTs [7]; read-out: ATP endpoint AC50,127 µM
same,minimal effective concentration,hLiMTs [7]; read-out: ATP endpoint MEC,111 µM
same,DILI prediction hLiMTs (HCS-MEC),hLiMTs [7]; [16],-VE
same,hLiMTs <25x Avg Cmax ATP,"hLiMTs [7]; hLiMTs, ATP endpoint, cut-off <25x Avg Cmax",-ve
same,hLiMTs <100x Avg Cmaxu ATP,"hLiMTs [7]; hLiMTs, ATP endpoint, cut-off <100x Avg Cmaxu",-ve
same,hLiMTs <25x Avg Cmax HCS,"hLiMTs [7]; hLiMTs, HCS endpoints, cut-off <25x Avg Cmax",-ve
same,hLiMTs <100x Avg Cmaxu HCS,"hLiMTs [7]; hLiMTs, HCS endpoints, cut-off <100x Avg Cmaxu",-ve
same,hLiMTs <25x Avg Cmax All,"hLiMTs [7]; hLiMTs, all endpoints (ATP and HCS), cut-off <25x Avg Cmax",-ve
same,hLiMTs Cmax max All,"hLiMTs [7]; hLiMTs, all endpoints, Cmax max used",-ve
same,hLiMTs Cmax min All,"hLiMTs [7]; hLiMTs, all endpoints, Cmax min used",-ve
same,hLiMTs <10 uM All,"hLiMTs [7]; hLiMTs, all endpoints",-ve
same,hLiMTs <100x Avg Cmaxu All,"hLiMTs [7]; hLiMTs, all endpoints, cut-off <100x Avg Cmaxu",-ve
CC1=CC(=O)c2ccccc2C1=O [menadione],Structural based (HCI),HepG2 cells [2],+VE
same,Structural based (HCI),HepG2 cells [3],+VE (lowest HCI endpoint IC50 (or in the absence of dose–response < 100 µM) < 30 × total human plasma exposure levels (Cmax.tot))
same,Cluser analysis,HepG2 cells [5],+VE
same,Structural based (HCI),HepG2 cells [5],+VE
same,In vivo DILI,[10]; ref O'Brien 2006,-VE
same,In vivo DILI,[10]; ref Persson 2013,+VE
same,In vivo DILI,[10]; ref Tolosa 2012,+VE
